Laboratory results from patent US8513219B2, “Substituted phosphonates and their use in decreasing amyloid aggregates” (Queen Mary & Westfield College, University of London, priority 2007, dated 2013).
Read-outs that look alike come from different tables or passages of the source.

Experiments:
β-amyloid plaques = system: β-amyloid plaques; set-up: species or system APP and APP/Tau transgenic mice; conditions: mouse, in vivo
[1] = system: L929 immortalised fibroblast cell line; experiment: MTT colorimetric toxicity assay in L929 fibroblast cell line; format: cell-based; conditions: L929, 0.3 nM to 1 μM, up to 24 h exposure
Method: A first assessment of the potential toxicity of the substituted phosphonates was carried out in a non-neuronal cell line, using a tetrazolium salt (MTT) colorimetric assay, based on the method described by Mossman (1983), which gives a reflection of mitochondrial activity and cell integrity. The MTT [3-(4,5-dimethylthiazol-2-yl)-2,5-diphenyltetrazolium bromide] assay is based on the ability of a mitochondrial dehydrogenase enzyme from viable cells to cleave the tetrazolium rings of the pale yellow MTT and form dark blue formazan crystals which cannot cross cell membranes. The result is that healthy cells will accumulate more of the blue formazan crystals. […] They were then incubated for 2 h after addition of MTT (1 mg/ml) and the absorbance was read at 570 nm. […] The toxicity of the reference compound clioquinol (0.3 nM to 1 μM) was assessed under the same conditions, for comparison.
A first assessment of toxicity of the substituted phosphonates was carried out in a non-neuronal cell line, using a tetrazolium salt (MTT) colorimetric assay, based on the method described by Mossman (1983), which gives a reflection of mitochondrial activity and cell integrity (FIGS. 6 and 7). The toxicity of the reference compound clioquinol (0.3 nM to 1 μM) was assessed under the same conditions, for comparison.

[2] = system: amyloid accumulation in H4 cells; experiment: H4 cell amyloid accumulation (6E10 antibody, HRP/OPD absorbance); format: cell-based, human
[3] = system: intracellular amyloid in H4 cells; experiment: intracellular distribution of amyloid in H4 cells (6E10 immunofluorescence); format: cell-based, human; conditions: 1 μM, 5 days incubation, single dose
[4] = system: H4 cells (human neuroblastoma cell line)
[5] = H4 cells, 1 μM, average of 2-3 experiments

Structure (SMILES) | amyloid plaque load in brain (β-amyloid plaques) | toxicity as reflected in cell viability (MTT) [1] | accumulation of amyloid in H4 cells ([2]; 1 μM, 5 days) | amyloid reduction (% controls), 5 day repeated doses [2, 5] [% controls] | amyloid reduction (% controls), 5 day single dose [2, 5] [% controls] | intracellular amyloid labelling in H4 cells [3] | cell survival (% controls), 5 day repeated doses ([4]; 5 days, 1 μM) [% controls] | cell survival (% controls), 5 day single dose ([4]; 5 days, 1 μM) [% controls] | amyloid reduction (% controls), 5 day repeated doses [2] [% controls] | amyloid reduction (% controls), 5 day single dose [2] [% controls] | cell survival (% controls), 5 day repeated doses [4] [% controls] | cell survival (% controls), 5 day single dose [4] [% controls] | reduction of cell viability [4] [%]
Oc1c(I)cc(Cl)c2cccnc12 [Clioquinol, reference compound] | apparent decreased plaque load, and especially a reduced load of large aggregates | neither clioquinol nor any of the substituted phosphonates screened showed any toxicity | decreases the accumulation of amyloid | 76 | 64 | reduced this intracellular accumulation in some of the cells, but brightly labelled areas could still be found | 96 | 99 |  |  |  |  | 
CCOP(=O)(COc1ccccc1-c1nc2ccccc2s1)OCC [Compound 14, Diethyl 2-(2-benzthiazolyl)phenoxymethylphosphonate] |  |  |  |  |  |  |  |  | 83 | 100 | 110 | 100 | 
CCOP(=O)(COc1ccc2c(c1)[nH]c1ccccc12)OCC [Compound 17, Diethyl-2-carbazolyloxymethylphosphonate] |  |  |  |  |  |  |  |  | 62 | 37 | 102 | 97 | 
O=P([O-])([O-])Cn1c2ccccc2c2ccccc21.[Na+].[Na+] [Compound 20, Disodium N-carbazolylmethylphosphonate] |  |  |  |  |  |  |  |  | 66 | 11 | 72 | 88 | 28
CCOP(=O)(COc1ccc(NC(C)=O)cc1)OCC [Compound 25, Diethyl 4-acetamidophenoxy methylphosphonate] |  |  |  |  |  |  |  |  | 62 | 24 | 97 | 98 | 
